Assay results taken from patent publication US12312343B2, “Rotomeric isomers of 4-alkyl-5-heteroaryl-3H-1,2-dithiole-3-thiones” (ST IP HOLDING AG, priority 2018, dated 2025).

What was measured:
UCP2 = test: Human oxidative stress RT2 Profiler PCR array in HGEPp cells: UCP2; format: cell-based; settings: 100 μg/ml, 24 h, RT-PCR ΔΔCt
Method: (§1) RT-PCR was performed on an iCycler.

GSTP1 = test: Human oxidative stress RT2 Profiler PCR array in HGEPp cells: GSTP1; format: cell-based; settings: 100 μg/ml, 24 h, RT-PCR ΔΔCt
Method: as §1

GCLM = test: Human oxidative stress RT2 Profiler PCR array in HGEPp cells: GCLM; format: cell-based; settings: 100 μg/ml, 24 h, RT-PCR ΔΔCt
Method: as §1

PRDX2 = test: Human oxidative stress RT2 Profiler PCR array in HGEPp cells: PRDX2; settings: 100 μg/ml, 24 h, RT-PCR ΔΔCt
Method: (§2) Pooled primary HGEPp cells were propagated in CnT-Prime epithelial culture medium provided by CellnTec on 100 mm petri dishes coated with 30 mg/ml Type I rat tail collagen (BD Biosciences) diluted in Dulbecco's phosphate-buffered saline (DPBS). HGEPp cells were grown in 12×60 mm Nunc™ Cell Culture dishes at a 2.5×10^4 cells/cm2 density concentration.
(§3) All dosing solutions contained 0.3% of DMSO which is well below the maximum tolerated DMSO percent of 0.8% for HGEPp cells.
(§4) The cDNA from above was mixed with the RT2 SYBR Green fluor Mastermix and aliquoted into the wells of the RT2 Profiler PCR Array. RT-PCR was performed on an iCycler. Gene expression was compared using Ct values and the results were calculated using ΔΔ Ct method with normalization to the average expression levels of the five common genes (ACTB, B2M, GAPDH, HPRT, and RPL13A).

MPO = test: Human oxidative stress RT2 Profiler PCR array in HGEPp cells: MPO; settings: 100 μg/ml, 24 h, RT-PCR ΔΔCt
Method: as §2, §3, §4

GTF2i = test: Human oxidative stress RT2 Profiler PCR array in HGEPp cells: GTF2i; format: cell-based; settings: 100 μg/ml, 24 h, RT-PCR ΔΔCt
Method: as §1

GCLC = test: Human oxidative stress RT2 Profiler PCR array in HGEPp cells: GCLC; format: cell-based; settings: 100 μg/ml, 24 h, RT-PCR ΔΔCt
Method: as §1

PTGS1 = test: Human oxidative stress RT2 Profiler PCR array in HGEPp cells: PTGS1; format: cell-based; settings: 100 μg/ml, 24 h, RT-PCR ΔΔCt
Method: as §1

HGEPp cells = test: ROS production in H2O2-induced oxidatively stressed HGEPp cells; settings: HGEPp cells pretreated 24 hrs at 100 μg/mL, then 0.3 mM H2O2 for 4 h; positive control 139%
GPX4 = test: Human oxidative stress RT2 Profiler PCR array in HGEPp cells: GPX4; settings: 100 μg/ml, 24 h, RT-PCR ΔΔCt
Method: as §2, §3, §4

GPX1 = test: Human oxidative stress RT2 Profiler PCR array in HGEPp cells: GPX1; format: cell-based; settings: 100 μg/ml, 24 h, RT-PCR ΔΔCt
Method: as §1

ALOX12 = test: Human oxidative stress RT2 Profiler PCR array in HGEPp cells: ALOX12; format: cell-based; settings: 100 μg/ml, 24 h, RT-PCR ΔΔCt
Method: as §1

NQO1 = test: Human oxidative stress RT2 Profiler PCR array in HGEPp cells: NQO1; format: cell-based; settings: 100 μg/ml, 24 h, RT-PCR ΔΔCt
Method: as §1

SOD1 = test: Human oxidative stress RT2 Profiler PCR array in HGEPp cells: SOD1; format: cell-based; settings: 100 μg/ml, 24 h, RT-PCR ΔΔCt
Method: as §1

Row | Molecule | UCP2 down regulation relative fold change (UCP2) | GSTP1 up regulation relative fold change (GSTP1) | GCLM up regulation relative fold change (GCLM) | PRDX2 down regulation relative fold change (PRDX2) | MPO up regulation relative fold change (MPO) | GTF2i down regulation relative fold change (GTF2i) | GCLC up regulation relative fold change (GCLC) | PTGS1 down regulation relative fold change (PTGS1) | ROS level (optical density, Normal = 100% baseline) (HGEPp cells) | GPX4 up regulation relative fold change (GPX4) | GPX1 up regulation relative fold change (GPX1) | ALOX12 up regulation relative fold change (ALOX12) | NQO1 up regulation relative fold change (NQO1) | SOD1 up regulation relative fold change (SOD1) | further results
1 | Cc1c(-c2cnccn2)ssc1=S.O=S(=O)(O)CCO [Example 10, isethionic acid complex of oltipraz] | 0.16 fold | significantly higher up-regulation | significantly higher up-regulation | 0.28 fold | 3.39 fold | 0.31 fold | significantly higher up-regulation | 0.22 fold | 113% | 2.79 fold | 4.86 fold | 6.48 fold | significantly higher up-regulation | significantly higher up-regulation | GSTP1 up regulation relative fold change (GSTP1; listed as Ex. 10): 3.18 fold; GCLM up regulation relative fold change (GCLM; listed as Ex. 10): 3.11 fold; GCLC up regulation relative fold change (GCLC; listed as Ex. 10): 4.52 fold; NQO1 up regulation relative fold change (NQO1; listed as Ex. 10): 4.26 fold; SOD1 up regulation relative fold change (SOD1; listed as Ex. 10): 5.23 fold
2 | methyl iodide complex of oltipraz [Example 5] | 0.29 fold | 2.90 fold | 2.27 fold | 0.32 fold | 3.18 fold | 0.33 fold | 3.38 fold | 0.28 fold | 134% | 2.85 fold | 4.98 fold | 6.04 fold | 3.15 fold | 3.89 fold | 
3 | dimethyl phosphate complex of N-methyl oltipraz [Example 9] | 0.15 fold | significantly higher up-regulation | significantly higher up-regulation | 0.27 fold | 3.41 fold | 0.28 fold | significantly higher up-regulation | 0.21 fold | 112% | 2.93 fold | 4.89 fold | 6.43 fold | significantly higher up-regulation | significantly higher up-regulation | GSTP1 up regulation relative fold change (GSTP1; listed as Ex. 9): 3.16 fold; GCLM up regulation relative fold change (GCLM; listed as Ex. 9): 3.15 fold; GCLC up regulation relative fold change (GCLC; listed as Ex. 9): 4.60 fold; NQO1 up regulation relative fold change (NQO1; listed as Ex. 9): 4.24 fold; SOD1 up regulation relative fold change (SOD1; listed as Ex. 9): 5.22 fold
4 | Cc1c(-c2cncc[n+]2OC2=CC(=O)OC2=O)ssc1=S [Example 2, hydroxymaleate anhydride complex of oltipraz] | 0.15 fold | 3.07 fold | 3.01 fold | 0.26 fold | 3.21 fold | 0.26 fold | 4.52 fold | 0.23 fold | 116% | 2.84 fold | 4.8 fold | 6.46 fold | 4.07 fold | 5.13 fold | 
5 | acetyl chloride complex of oltipraz [Example 3] | 0.26 fold | 2.87 fold | 2.38 fold | 0.33 fold | 3.10 fold | 0.32 fold | 3.27 fold | 0.29 fold | 129% | 2.83 fold | 4.76 fold | 6.33 fold | 3.36 fold | 4.24 fold | 
6 | benzoyl chloride complex of oltipraz [Example 6] | 0.28 fold | 2.74 fold | 2.25 fold | 0.31 fold | 3.05 fold | 0.36 fold | 3.31 fold | 0.28 fold | 131% | 2.91 fold | 4.43 fold | 5.93 fold | 3.17 fold | 3.92 fold | 
7 | diethyl dithiophosphate complex of oltipraz [Example 7] | 0.17 fold | 3.13 fold | 3.00 fold | 0.28 fold | 3.42 fold | 0.29 fold | 4.41 fold | 0.21 fold | 117% | 2.99 fold | 4.72 fold | 6.38 fold | 3.93 fold | 4.85 fold | 
8 | Cc1c(-c2cnccn2)ssc1=S.Cl [Example 1, hydrochloride complex of oltipraz] | 0.26 fold | 2.77 fold | 2.33 fold | 0.31 fold | 3.22 fold | 0.33 fold | 3.35 fold | 0.28 fold | 128% | 2.86 fold | 4.81 fold | 6.38 fold | 3.14 fold | 3.86 fold | 
